# Reference: ChEMBL document CHEMBL3044593, “Design, synthesis and anticonvulsant evaluation of novel 8-substituted-4(3H)-quinazolines” (Med Chem Res, 2012)
# Calls of active or inactive are those of the source. No cut-off for these calls is given here.
# How the values were obtained:
# [1] = Therapeutic index, ratio of LD50 for ip dosed Mus musculus (mouse) to ED50 for protection against pentylenetetrazol-induced seizures in ip dosed mouse; type: organism-based; conditions: in vivo, read-out: Ratio LD50/ED50
# Mus musculus [2] = assay: Protective index, ratio of TD50 for ip dosed Mus musculus (mouse) to ED50 for protection against pentylenetetrazol-induced seizures in ip dosed mouse; type: functional
# [3] = Toxicity in ip dosed Mus musculus (mouse) assessed as mortality; type: organism-based; conditions: in vivo
# [4] = Acute neurotoxicity in ip dosed Mus musculus (mouse) assessed as motor impairment administered 30 min prior to testing measured for 30 secs by chimney test; type: toxicity, organism-based; conditions: in vivo
# Mus musculus [5] = assay: Anticonvulsant activity in ip dosed Mus musculus (mouse) assessed as protection against pentylenetetrazol-induced seizures administered 30 min prior to seizure induction measured for 60 min; type: functional
# Mus musculus [6] = assay: Anticonvulsant activity in Mus musculus (mouse) assessed as protection against picrotoxin-induced seizures at 0.5 mmol/kg, ip administered 30 min prior to seizure induction measured for 60 min relative to control; type: functional, organism-based
# Mus musculus [7] = assay: Anticonvulsant activity in Mus musculus (mouse) assessed as protection against strychnine-induced seizures at 0.5 mmol/kg, ip administered 30 min prior to seizure induction measured for 60 min relative to control; type: functional, organism-based
# Mus musculus [8] = assay: Anticonvulsant activity in Mus musculus (mouse) assessed as protection against maximal electroshock-induced seizures at 0.5 mmol/kg, ip administered 30 min prior to seizure induction measured for 60 min relative to control; type: functional
# Mus musculus [9] = assay: Anticonvulsant activity in Mus musculus (mouse) assessed as protection against pentylenetetrazol-induced seizures at 0.5 mmol/kg, ip administered 30 min prior to seizure induction measured for 60 min relative to control; type: functional
# Mus musculus [10] = assay: Anticonvulsant activity in Mus musculus (mouse) assessed as protection against maximal electroshock-induced seizures at 1.4 mmol/kg, ip administered 30 min prior to seizure induction measured for 60 min relative to control; type: functional
# Mus musculus [11] = assay: Anticonvulsant activity in Mus musculus (mouse) assessed as protection against pentylenetetrazol-induced seizures at 1.4 mmol/kg, ip administered 30 min prior to seizure induction measured for 60 min relative to control; type: functional
# Mus musculus [12] = assay: Anticonvulsant activity in Mus musculus (mouse) assessed as protection against maximal electroshock-induced seizures at 1.5 mmol/kg, ip administered 30 min prior to seizure induction measured for 60 min relative to control; type: functional
# Mus musculus [13] = assay: Anticonvulsant activity in Mus musculus (mouse) assessed as protection against pentylenetetrazol-induced seizures at 1.5 mmol/kg, ip administered 30 min prior to seizure induction measured for 60 min relative to control; type: functional
smiles,measurement,setting,value
Cc1ccccc1-n1c(C)nc2c(OCC(=O)NN)cccc2c1=O,selectivity ratio,[1],10.2
same,Ratio TD50/ED50,Mus musculus [2],2.7
same,LD50,[3],2960 µmol/kg
same,TD50 at 0.5 min,[4],790 µmol/kg
same,ED50,Mus musculus [5],290 µmol/kg
same,Activity,Mus musculus [6],inactive
same,Activity,Mus musculus [7],inactive
same,Activity,Mus musculus [8],50%
same,Activity,Mus musculus [9],100%
CSC(=S)NNC(=O)COc1cccc2c(=O)n(-c3ccccc3C)c(C)nc12,selectivity ratio,[1],3.34
same,LD50,[3],1170 µmol/kg
same,TD50 at 0.5 min,[4],670 µmol/kg
same,ED50,Mus musculus [5],350 µmol/kg
same,Activity,Mus musculus [6],inactive
same,Activity,Mus musculus [7],inactive
same,Activity,Mus musculus [8],100%
same,Activity,Mus musculus [9],100%
Cc1ccccc1-n1c(C)nc2c(OCC(=O)N/N=C\c3ccccc3)cccc2c1=O,Activity,Mus musculus [6],inactive
same,Activity,Mus musculus [7],inactive
same,Activity,Mus musculus [8],0%
same,Activity,Mus musculus [9],50%
Cc1ccccc1-n1c(C)nc2ccccc2c1=O [METHAQUALONE],selectivity ratio,[1],1.4
same,TD50 at 0.5 min,[4],1600 µmol/kg
same,ED50,Mus musculus [5],1400 µmol/kg
same,Activity,Mus musculus [10],100%
same,Activity,Mus musculus [11],100%
COc1ccccc1/C=N\NC(=O)COc1cccc2c(=O)n(-c3ccccc3C)c(C)nc12,Activity,Mus musculus [6],inactive
same,Activity,Mus musculus [7],inactive
same,Activity,Mus musculus [8],0%
same,Activity,Mus musculus [9],33%
Cc1ccccc1-n1c(C)nc2c(OCC(=O)N/N=C\c3ccccc3F)cccc2c1=O,Activity,Mus musculus [6],inactive
same,Activity,Mus musculus [7],inactive
same,Activity,Mus musculus [8],50%
same,Activity,Mus musculus [9],66%
CCOC(=O)NNC(=O)COc1cccc2c(=O)n(-c3ccccc3C)c(C)nc12,selectivity ratio,[1],1.51
same,LD50,[3],1020 µmol/kg
same,TD50 at 0.5 min,[4],600 µmol/kg
same,ED50,Mus musculus [5],390 µmol/kg
same,Activity,Mus musculus [6],inactive
same,Activity,Mus musculus [7],inactive
same,Activity,Mus musculus [8],100%
same,Activity,Mus musculus [9],100%
Cc1ccccc1-n1c(C)nc2c(OCC(=O)NCCO)cccc2c1=O,Activity,Mus musculus [6],inactive
same,Activity,Mus musculus [7],inactive
same,Activity,Mus musculus [8],0%
same,Activity,Mus musculus [9],50%
Cc1ccccc1-n1c(C)nc2c(OCC(=O)NNC(N)=O)cccc2c1=O,Activity,Mus musculus [6],inactive
same,Activity,Mus musculus [7],inactive
same,Activity,Mus musculus [8],0%
same,Activity,Mus musculus [9],50%
Cc1ccccc1-n1c(C)nc2c(OCC(=O)NNC(=S)NN)cccc2c1=O,Activity,Mus musculus [6],inactive
same,Activity,Mus musculus [7],inactive
same,Activity,Mus musculus [8],33%
same,Activity,Mus musculus [9],66%
CCCC(CCC)C(=O)[O-].[Na+] [VALPROATE SODIUM],LD50,[3],11900 µmol/kg
same,TD50 at 0.5 min,[4],9600 µmol/kg
same,ED50,Mus musculus [5],4800 µmol/kg
same,Activity,Mus musculus [12],100%
same,Activity,Mus musculus [13],100%
Cc1ccccc1-n1c(C)nc2c(OCC(=O)NNC(=O)NN)cccc2c1=O,Activity,Mus musculus [6],inactive
same,Activity,Mus musculus [7],inactive
same,Activity,Mus musculus [8],0%
same,Activity,Mus musculus [9],50%
